Test results from ChEMBL document CHEMBL3580659, “One-pot multicomponent synthesis of indole incorporated thiazolylcoumarins and their antibacterial, anticancer and DNA cleavage studies” (2015).

Key:
Format in all cases: functional
A498 [1] = assay: Cytotoxicity against human A498 cells assessed as cell growth level at 100 uM after 48 hrs by sulforhodamine B assay
NCI-H23 = assay: Cytotoxicity against human NCI-H23 cells after 48 hrs by sulforhodamine B assay; conditions: NCI-H23, 48 h
SK-OV-3 = assay: Cytotoxicity against human SKOV3 cells assessed as cell growth level at 1 uM after 48 hrs by sulforhodamine B assay
A498 [2] = assay: Cytotoxicity against human A498 cells assessed as cell growth level at 1 uM after 48 hrs by sulforhodamine B assay
HOP-62 = assay: Cytotoxicity against human HOP62 cells assessed as cell growth level at 10 nM after 48 hrs by sulforhodamine B assay
SNB-19 = assay: Cytotoxicity against human SNB19 cells after 48 hrs by sulforhodamine B assay; conditions: SNB-19, 48 h
ACHN = assay: Cytotoxicity against human ACHN cells assessed as cell growth level at 10 uM after 48 hrs by sulforhodamine B assay
DU-145 = assay: Cytotoxicity against human DU145 cells assessed as cell growth level at 10 uM after 48 hrs by sulforhodamine B assay
SW-620 = assay: Cytotoxicity against human SW620 cells assessed as cell growth level at 10 uM after 48 hrs by sulforhodamine B assay
SK-MEL-2 = assay: Cytotoxicity against human SK-MEL-2 cells assessed as cell growth level at 1 uM after 48 hrs by sulforhodamine B assay
HOP-92 [3] = assay: Cytotoxicity against human HOP92 cells assessed as cell growth level at 100 uM after 48 hrs by sulforhodamine B assay
HOP-92 [4] = assay: Cytotoxicity against human HOP92 cells assessed as cell growth level at 10 nM after 48 hrs by sulforhodamine B assay
K562 = assay: Cytotoxicity against human K562 cells assessed as cell growth level at 1 uM after 48 hrs by sulforhodamine B assay
SN12C = assay: Cytotoxicity against human SN12C cells assessed as cell growth level at 1 uM after 48 hrs by sulforhodamine B assay
UACC-62 = assay: Cytotoxicity against human UACC62 cells assessed as cell growth level at 10 uM after 48 hrs by sulforhodamine B assay
NCI-H322M = assay: Cytotoxicity against human NCI-H322M cells assessed as cell growth level at 1 uM after 48 hrs by sulforhodamine B assay
HCT-116 [5] = assay: Cytotoxicity against human HCT116 cells assessed as cell growth level at 1 uM after 48 hrs by sulforhodamine B assay
MOLT-4 = assay: Cytotoxicity against human MOLT4 cells assessed as cell growth level at 10 nM after 48 hrs by sulforhodamine B assay
RXF 393 = assay: Cytotoxicity against human RXF393 cells assessed as cell growth level at 100 uM after 48 hrs by sulforhodamine B assay
HCT-116 [6] = assay: Cytotoxicity against human HCT116 cells assessed as cell growth level at 100 nM after 48 hrs by sulforhodamine B assay
CCRF-CEM [7] = assay: Cytotoxicity against human CCRF-CEM cells assessed as cell growth level at 100 nM after 48 hrs by sulforhodamine B assay
HL-60(TB) [8] = assay: Cytotoxicity against human HL-60(TB) cells assessed as cell growth level at 1 uM after 48 hrs by sulforhodamine B assay
SF-295 = assay: Cytotoxicity against human SF295 cells assessed as cell growth level at 10 nM after 48 hrs by sulforhodamine B assay
MCF7 = assay: Cytotoxicity against human MCF7 cells assessed as cell growth level at 1 uM after 48 hrs by sulforhodamine B assay
OVCAR-5 = assay: Cytotoxicity against human OVCAR5 cells assessed as cell growth level at 100 uM after 48 hrs by sulforhodamine B assay
COLO 205 = assay: Cytotoxicity against human COLO205 cells assessed as cell growth level at 100 nM after 48 hrs by sulforhodamine B assay
RPMI-8226 [9] = assay: Cytotoxicity against human RPMI8226 cells assessed as cell growth level at 100 uM after 48 hrs by sulforhodamine B assay
Malme-3M = assay: Cytotoxicity against human MALME-3M cells assessed as cell growth level at 10 nM after 48 hrs by sulforhodamine B assay
NCI-H522 [10] = assay: Cytotoxicity against human NCI-H522 cells assessed as cell growth level at 10 nM after 48 hrs by sulforhodamine B assay
CCRF-CEM [11] = assay: Cytotoxicity against human CCRF-CEM cells assessed as cell growth level at 1 uM after 48 hrs by sulforhodamine B assay
HT-29 = assay: Cytotoxicity against human HT-29 cells assessed as cell growth level at 100 nM after 48 hrs by sulforhodamine B assay
HCT-116 [12] = assay: Cytotoxicity against human HCT116 cells assessed as cell growth level at 100 uM after 48 hrs by sulforhodamine B assay
HL-60(TB) [13] = assay: Cytotoxicity against human HL-60(TB) cells assessed as cell growth level at 10 uM after 48 hrs by sulforhodamine B assay
M14 [14] = assay: Cytotoxicity against human M14 cells assessed as cell growth level at 1 uM after 48 hrs by sulforhodamine B assay
M14 [15] = assay: Cytotoxicity against human M14 cells after 48 hrs by sulforhodamine B assay; conditions: M14, 48 h
OVCAR-8 = assay: Cytotoxicity against human OVCAR8 cells assessed as cell growth level at 10 nM after 48 hrs by sulforhodamine B assay
M14 [16] = assay: Cytotoxicity against human M14 cells assessed as cell growth level at 10 uM after 48 hrs by sulforhodamine B assay
RPMI-8226 [17] = assay: Cytotoxicity against human RPMI8226 cells assessed as cell growth level at 10 nM after 48 hrs by sulforhodamine B assay
PC-3 = assay: Cytotoxicity against human PC3 cells assessed as cell growth level at 100 uM after 48 hrs by sulforhodamine B assay
HCC 2998 = assay: Cytotoxicity against human HCC2998 cells assessed as cell growth level at 100 nM after 48 hrs by sulforhodamine B assay
NCI-H522 [18] = assay: Cytotoxicity against human NCI-H522 cells assessed as cell growth level at 1 uM after 48 hrs by sulforhodamine B assay
M14 [19] = assay: Cytotoxicity against human M14 cells assessed as cell growth level at 10 nM after 48 hrs by sulforhodamine B assay
T47D = assay: Cytotoxicity against human T47D cells assessed as cell growth level at 1 uM after 48 hrs by sulforhodamine B assay
[20] = read-out: LC50 (the source's name)
[21] = read-out: pLC50 (the source's name) (converted)

In the case of `O=c1oc2ccccc2cc1-c1csc(N/N=C/c2c[nH]c3ccccc23)n1`, the Activity (A498 [1]) is reported as -53%, the GI50 (NCI-H23; read-out: GI50) is reported as 2.44 µM and the LC50 (NCI-H23; read-out: LC50) is reported as over 100 µM. The TGI (NCI-H23; read-out: TGI) was 5.82 µM, the GI50 (NCI-H23; read-out: pGI50 (converted)) was 2.45 µM and the LC50 (NCI-H23; read-out: pLC50 (converted)) was over 100 µM. The TGI (NCI-H23; read-out: pTGI (converted)) was 5.75 µM, the Activity (SK-OV-3) was 64% and the Activity (A498 [2]) was 61%. It also gave an Activity (HOP-62) of 105%, a GI50 (SNB-19; read-out: GI50) of 3.39 µM and a CC50 (SNB-19; [20]) of over 100 µM. The TGI (SNB-19; read-out: TGI) was 62.1 µM, the GI50 (SNB-19; read-out: pGI50 (converted)) was 3.39 µM and the CC50 (SNB-19; [21]) was over 100 µM. For the same compound, the TGI (SNB-19; read-out: pTGI (converted)) was 61.7 µM, the Activity (ACHN) was 10.07% and the Activity (DU-145) was -36.09%. The Activity (SW-620) was 17.5%, the Activity (SK-MEL-2) was 90% and the Activity (HOP-92 [3]) was -27%. It also gave an Activity (HOP-92 [4]) of 100%, an Activity (K562) of 100% and an Activity (SN12C) of 45%. For the same compound, the Activity (UACC-62) was 42.96%, the Activity (NCI-H322M) was 92% and the Activity (HCT-116 [5]) was 81%. The Activity (MOLT-4) was 92%, the Activity (RXF 393) was -6% and the Activity (HCT-116 [6]) was 91%. For the same compound, the Activity (CCRF-CEM [7]) was 98%, the Activity (HL-60(TB) [8]) was 26% and the Activity (SF-295) was 93%. For the same compound, the Activity (MCF7) was 69%, the Activity (OVCAR-5) was -36% and the Activity (COLO 205) was 115%. The Activity (RPMI-8226 [9]) was -41%, the Activity (Malme-3M) was 100% and the Activity (NCI-H522 [10]) was 105%. It also gave an Activity (CCRF-CEM [11]) of 7%, an Activity (HT-29) of 105% and an Activity (HCT-116 [12]) of -66%. For the same compound, the Activity (HL-60(TB) [13]) was -28.24%, the Activity (M14 [14]) was 89% and the GI50 (M14 [15]; read-out: GI50) was 1.95 µM. For the same compound, the CC50 (M14 [15]; [20]) was 9.13 µM, the TGI (M14 [15]; read-out: TGI) was 4.22 µM and the GI50 (M14 [15]; read-out: pGI50 (converted)) was 1.95 µM. For the same compound, the CC50 (M14 [15]; [21]) was 9.12 µM, the TGI (M14 [15]; read-out: pTGI (converted)) was 4.17 µM and the Activity (OVCAR-8) was 104%. For the same compound, the Activity (M14 [16]) was 34.19%, the Activity (RPMI-8226 [17]) was 99% and the Activity (PC-3) was -20%. It also gave an Activity (HCC 2998) of 97%, an Activity (NCI-H522 [18]) of 103% and an Activity (M14 [19]) of 97%. For the same compound, the Activity (T47D) was 81%.
